# Assays:
# [1] = target: T1, Estrogen receptor beta (Homo sapiens, UniProt Q92731)
# Description: Ability to activate estrogen receptor 2-mediated transcription.
# [2] = target: T2, Estrogen receptor (Homo sapiens, UniProt P03372)
# T2 sequence (P03372 whole entry): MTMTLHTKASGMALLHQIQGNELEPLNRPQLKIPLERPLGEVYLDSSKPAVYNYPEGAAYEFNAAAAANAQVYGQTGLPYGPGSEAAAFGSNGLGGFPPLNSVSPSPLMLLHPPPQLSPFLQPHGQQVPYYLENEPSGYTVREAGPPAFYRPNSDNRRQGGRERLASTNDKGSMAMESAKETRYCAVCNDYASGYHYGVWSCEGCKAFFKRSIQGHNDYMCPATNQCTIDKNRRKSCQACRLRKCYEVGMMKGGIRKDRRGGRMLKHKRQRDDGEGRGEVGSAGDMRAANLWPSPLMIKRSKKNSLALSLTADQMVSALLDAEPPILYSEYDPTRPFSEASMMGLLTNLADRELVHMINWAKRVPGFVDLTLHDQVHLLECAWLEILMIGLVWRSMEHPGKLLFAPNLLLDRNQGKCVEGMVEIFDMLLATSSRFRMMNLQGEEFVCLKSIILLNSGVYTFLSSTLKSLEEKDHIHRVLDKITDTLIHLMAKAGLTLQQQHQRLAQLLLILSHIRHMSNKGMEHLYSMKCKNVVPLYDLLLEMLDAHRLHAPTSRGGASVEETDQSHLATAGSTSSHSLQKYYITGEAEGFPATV
# Description: Ability to activate estrogen receptor 1-mediated transcription.
# [3] = target: T2, Estrogen receptor; remark: listed apart in the source
# Description: Binding affinity towards estrogen receptor alpha by [3H]17-beta-estradiol displacement.
# [4] = target: T1, Estrogen receptor beta; remark: listed apart in the source
# Description: Binding affinity towards estrogen receptor beta by [3H]17-beta-estradiol displacement.
# T1 sequence (Q92731 whole entry): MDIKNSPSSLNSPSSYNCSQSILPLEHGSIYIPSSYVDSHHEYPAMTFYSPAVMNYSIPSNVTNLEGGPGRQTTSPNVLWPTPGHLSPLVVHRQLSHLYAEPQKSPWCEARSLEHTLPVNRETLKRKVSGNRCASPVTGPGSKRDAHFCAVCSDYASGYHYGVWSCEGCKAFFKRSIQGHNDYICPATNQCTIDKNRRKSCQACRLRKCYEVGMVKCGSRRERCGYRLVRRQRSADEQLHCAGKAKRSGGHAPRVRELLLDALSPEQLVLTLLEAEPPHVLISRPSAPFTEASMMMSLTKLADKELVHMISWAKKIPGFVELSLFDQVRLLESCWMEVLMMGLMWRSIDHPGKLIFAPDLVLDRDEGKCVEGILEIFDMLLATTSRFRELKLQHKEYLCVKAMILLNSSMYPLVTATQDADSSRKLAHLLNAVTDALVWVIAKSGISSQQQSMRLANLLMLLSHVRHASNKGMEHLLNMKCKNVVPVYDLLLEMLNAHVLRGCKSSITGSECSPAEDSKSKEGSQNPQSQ
SMILES,EC50 [1],EC50 [2],IC50 [3],IC50 [4]
CC1(C)Oc2cc(O)ccc2N=C1c1ccc(O)cc1,140 nM,3100 nM,8600 nM,5600 nM
Oc1ccc2c(c1)CC1Oc3cc(O)ccc3N=C21 (centres undefined),77 nM,900 nM,5600 nM,1400 nM
Oc1ccc(C2=Nc3c(O)cc(O)cc3OC2)cc1,270 nM,1800 nM,33000 nM,2800 nM
CC1(C)Oc2cc(O)cc(O)c2N=C1c1ccc(O)c(Br)c1,120 nM,1400 nM,6000 nM,1700 nM
CCC1Oc2cc(O)cc(O)c2N=C1c1ccc(O)c(Br)c1 (centres undefined),180 nM,2000 nM,5300 nM,1100 nM
Cc1cc(O)cc2c1N=C(c1ccc(O)c(Br)c1)C(C)O2 (centres undefined),16 nM,46 nM,320 nM,90 nM
Oc1ccc(C2=Nc3ccc(O)cc3OC2)cc1,160 nM,6900 nM,16000 nM,2900 nM
Oc1ccc2c(c1)CCC1Oc3cc(O)ccc3N=C21 (centres undefined),240 nM,12000 nM,6000 nM,2600 nM
"CC1Oc2cc(O)cc(O)c2N=C1c1ccc(O)cc1 (single isomer, unassigned; enantiomer B)",74 nM,290 nM,6300 nM,1100 nM

# Second part, the molecule after the results:
EC50 [1],EC50 [2],IC50 [3],IC50 [4],SMILES
18 nM,1700 nM,1700 nM,320 nM,CCCC1Oc2cc(O)ccc2N=C1c1ccc(O)cc1 (centres undefined)
30 nM,64 nM,1700 nM,330 nM,CC1Oc2cc(O)ccc2N=C1c1ccc(O)cc1 (centres undefined)
7 nM,59 nM,850 nM,200 nM,CCC1Oc2cc(O)ccc2N=C1c1ccc(O)cc1 (centres undefined)
8 nM,170 nM,180 nM,90 nM,CCC1Oc2cc(O)cc(C)c2N=C1c1ccc(O)c(Br)c1 (centres undefined)
26 nM,170 nM,1200 nM,120 nM,CCC1Oc2cc(O)cc(O)c2N=C1c1ccc(O)cc1 (centres undefined)
50 nM,140 nM,2800 nM,240 nM,"CC1Oc2cc(O)cc(O)c2N=C1c1ccc(O)cc1 (single isomer, unassigned)"
47 nM,150 nM,2900 nM,310 nM,CC1Oc2cc(O)cc(O)c2N=C1c1ccc(O)cc1 (stereo in doubt; 4i)

# Reference: ChEMBL document CHEMBL1148236, “Synthesis and structure-activity relationship of 3-arylbenzoxazines as selective estrogen receptor beta agonists” (Bioorg Med Chem Lett, 2004)
